Assay [1] deals with H2A-H2B^30-130 bearing H2B Y45A. The experiment in a line: ITC binding to H2A-H2B^30-130 bearing H2B Y45A. Also on record: species or system Saccharomyces cerevisiae.
Assay [2] relates to H2A-H2B^30-130 bearing H2B M62A. As to the kind of experiment: ITC binding to H2A-H2B^30-130 bearing H2B M62A. On the set-up: species or system Saccharomyces cerevisiae.
Assay [3] concerns the target full-length H2A-H2B (Saccharomyces cerevisiae, UniProt P02293+P04911). As to the kind of experiment: ITC binding to full-length H2A-H2B.
Assay [4] has as its system H2A-H2B^30-130 H2B M62E. The experiment in a line: ITC binding to H2A-H2B^30-130 bearing H2B M62E. On the set-up: species or system Saccharomyces cerevisiae.
The test system of assay [5] is H2A R78A H2A-H2B^30-130. As to the kind of experiment: ITC binding to H2A-H2B^30-130 bearing H2A R78A. On the set-up: species or system Saccharomyces cerevisiae.
Assay [6] concerns H2A R78E H2A-H2B^30-130. As to the kind of experiment: ITC binding to H2A-H2B^30-130 bearing H2A R78E. Also on record: species or system Saccharomyces cerevisiae.
For assay [7], the system named is H2A-H2B M62E. As to the kind of experiment: ITC binding of full-length FACT to H2A-H2B M62E. Also on record: species or system Saccharomyces cerevisiae.
Assay [8] has as its system H2A-H2B M62E. The experiment in a line: EMSA binding of full-length FACT to H2A-H2B M62E. As to conditions: not shown. Also on record: species or system Saccharomyces cerevisiae.
The test system of assay [9] is H2A.Z-H2B. The experiment in a line: EMSA of full-length FACT with H2A.Z-H2B. The format is binding, Saccharomyces cerevisiae. A general note: In EMSA bound probe runs differently from free probe, usually more slowly.

Where no end group is shown, it is not given here.

Sequence of full-length H2A-H2B (P04911 2-132 limits assumed): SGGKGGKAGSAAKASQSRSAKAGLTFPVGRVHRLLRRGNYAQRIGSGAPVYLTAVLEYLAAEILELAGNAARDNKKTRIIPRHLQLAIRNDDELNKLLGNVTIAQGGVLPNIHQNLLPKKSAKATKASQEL
Sequence of full-length H2A-H2B (P02293 2-131 limits assumed): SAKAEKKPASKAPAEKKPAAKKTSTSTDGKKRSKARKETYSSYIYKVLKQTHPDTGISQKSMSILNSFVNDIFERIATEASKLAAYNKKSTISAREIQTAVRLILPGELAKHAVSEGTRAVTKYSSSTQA

Take “DESVDEDFQVSSDNDADEVAEEFDS [Pob3^505-529]”: in assay [1], the “reduction in binding (fold) with H2B Y45A relative to wild-type histones” value is 12 fold. Besides, the “reduction in binding (fold) with H2B M62A relative to wild-type histones” value in assay [2] amounted to 9 fold.

Consider Pob3: Pob3 subunit of FACT, for which the Kd in assay [3] (read-out: dissociation constant (KD) for H2A-H2B, 25 °C, 25 mM Na-K phosphate pH 7.4, 200 mM NaCl, at least triplicate) was approximately 1000 nM.

With “Spt16-C^958-999: Spt16 residues 958-999 (DDEASDESEEEVSEYEASEDDVSDESAFSEDEEGSEVDDDIS)”, in assay [3] (25 °C, pH 7.4, 200 mM NaCl), the “binding to H2A-H2B (in words)” value is “recapitulates the full H2A-H2B binding activity of Spt16”.

Regarding “Spt16^958-990: Spt16 peptide of residues 958-990 used for crystal structure and histone mutant binding (DDEASDESEEEVSEYEASEDDVSDESAFSEDEE)”, the “binding to H2B M62E histone mutant (in words)” value in assay [4] was “reduced binding to undetectable levels”. Also, the “binding to H2A R78A histone mutant (in words)” value in assay [5] is recorded as “little effect on binding”. The “binding to H2A R78E histone mutant (in words)” value in [6] was “affinity was completely lost”.

In the case of “full-length FACT: full-length S. cerevisiae Spt16-Pob3 heterodimer”, in [3] (25 °C, pH 7.4, 200 mM NaCl), the “stoichiometry of binding to H2A-H2B” value is listed as “one full-length Spt16-Pob3 heterodimer bound two H2A-H2B dimers”. For the same substance, the “binding of full-length FACT to H2A-H2B M62E by ITC (in words)” value in assay [7] is on record as “severe reduction in the binding”. In assay [8], the “binding of full-length FACT to H2A-H2B M62E by EMSA (in words)” value is given as “diminished binding”. For the same substance, the “discrimination between H2A.Z-H2B and H2A-H2B by EMSA (in words)” value in assay [9] was “does not differentiate between H2A.Z-H2B and H2A-H2B”.

Broadly, the Kd is the equilibrium constant for the complex coming apart.

The values above are taken from paper PMC4620744 (Molecular cell, 2015).
